Legend:
RG2 cells = experiment: Kinetic uptake studies of fluorescent peptides; assay type: cell-based, rat
Description: A172 cells, T98G cells and RG2 cells were purchased from ATCC. Cells were cultured under standard conditions. For cell uptake studies, each cell type was plated in 6 well plates at 5×10^5 cells per well 24 hours before the experiment. Increasing concentration of fluorescent peptides from 0.5 μM to 10 μM was prepared in complete medium. Cells were incubated with each concentration for 5, 10, 20 and 30 minutes at 37° C. followed by removal and washing of cells with 4° C. PBS 3×. Cells were solubilized in 0.2 ml 1% TX-100, PBS, pH 7.4. Fluorescence was measured using a fluorescent plate reader. Concentrations were determined by standard curve and normalized to μg of cellular protein.
A172, T98G and RG2 cells were plated in 6 well plates and incubated with 1, 2.5, 5 and 10 uM fluorescein labeled peptides for 5, 15, 30 and 60 minutes. Cells were washed 3× with PBS, removed from the plates with trypsin, centrifuged for 2 minutes at 2K rpm in a desk top centrifuge, supernatants discarded and the cell pellets were solubilized in 1% TX-100, PBS, pH 7.4. Fluorescence was measured in a Perkin Elmer fluorimeter using ˜ex=480 nm and ˜em=520 nm with a 510 nm cut off filter. Amount of cell-associated protein was determined from the standard curve.
This peptide was further characterized with regard to dose response. […]

[1] = tested on: endothelial cells and smooth muscle cells of rat cerebral arteries; experiment: Uptake of fluorescent peptides by pressure-mounted rat cerebral arteries; assay type: cell-based; conditions: extraluminal addition
[2] = tested on: T98G cells, RG2 cells and A172 cells; experiment: Cell viability assay of chimeric peptides in three cell types; assay type: cell-based, human and rat; conditions: fixed concentration, 30-minute incubation
Description: Synthetic peptides labeled with an N-terminal fluorescein were synthesized to test the ability of a shuttle domain to enter brain tumor and endothelial cells. The amino acid sequences for the shuttle domain was derived from HIV Tat amino acid 47 to 56 ([…] SEQ ID NO:23)(Robert-Guroff et al., J. Virol. 64:3391-3398, 1990) to which AGGG was added to the N-terminus, and the antennapedia homeodomain from drosophila (ANT) ([…] SEQ ID NO:24) (Astriab-Fisher et al., Pharm. Res., 19:744-754, 2002). A synthetic peptide (PTD-5) reported to have similar properties as Tat and ANT was also tested (Mai J. C. et al, Cancer Res. 2001; 61: 7709-7712.). Uptake was tested in two human glioblastoma cell lines and a rat glioma cell line, the latter being used for the rat brain tumor model. A 1 μM concentration of each peptide was added to 10^6 cells in a 6 well plate. […] The Tat and ANT peptides were doubled in length by the addition of […] (SEQ ID NO: 25), amino acids 42 to 55 from a human cyclin-dependent kinase inhibitor 2A (melanoma, p16, inhibits CDK4) (CDKI), transcript variant 4, mRNA (accession no. NM_058195). […]
The cytotoxicity of the chimeric peptides was characterized using a cell viability assay. […] After a 30-minute incubation, cells were removed from the plate, stained with propidium iodide and the % positive cells were determined by FACS (fluorescent activated cell scanning). […]

rat cerebral arteries [3] = experiment: Vasodilation and vasoconstriction response of rat cerebral arteries before and after peptide; assay type: cell-based; conditions: after vs before intraluminal peptide
Description: The blood vessels were put in culture described above and perfused with buffer of the same composition as cerebrospinal fluid. Vessel diameter was measured before and after administration of each reagent. 3 μM of each peptide was perfused through for 10 minutes followed by a 10 minute wash through. Vasoconstriction and vasodilation were determined for each vessel before peptide was applied. Perfusion was continued until the vessels relaxed to their original diamter (approximately 30 minutes). The vasoconstriction and vasodilation reponse was remeasured after the 10 minute wash through. The 60 mM KCl and 16 mM KCl conditions are […], respectively. Histamine and Bradykinin are endothelial cell vasodilators.
In some experiments, the arterial segments were denuded of endothelium by passing an air bubble through the lumen, thus exposing the smooth muscle cells to luminally administered peptides. Constriction to pressure and 60 mM KCl and dilation of arteries with myogenic tone to 16 mM KCl were used as benchmarks of functional arteries. Peptide containing PCSF was perfused intraluminally at an inlet pressure of 70 mmHg with the outlet open, for 20 min and then perfused with normal PCSF. This procedure ensures a 20 min of exposure of the arteries to the peptide.
(§1) Effect of peptide on endothelial and smooth muscle function was evaluated by histamine (0.3 and 1 μM) and bradykinin (0.5 μM) (endothelium-dependent vasodilators) and 16 and 60 mM KCl (results in dilation and constriction of arteries by hyperpolarizing and depolarizing smooth muscle, respectively). These drug solutions were added to the superfusate and applied to the arteries extraluminally for 10 to 15 min before and after intraluminal perfusion with peptides. Effects of these agents were expressed as percent change in myogenic tone (decrease for dilators and increase for constrictors). Experiments were concluded by exposing the arteries to calcium free PCSF to obtain the passive diameter. Cell viability was determined by adding H3334 (Hoechst viability stain, final concentration 1 μM) and propidium iodide (final concentration 1 μM) to the arteriograph after the peptide incubation. Fluorescent micrographs were taken of the vessels after incubation with peptides and following addition of the vital stains using Till Photonics imaging system (Martinsried, Germany).

rat cerebral arteries [4] = experiment: Cell viability staining of arteries (propidium iodide, H3334) after peptide; assay type: cell-based; conditions: after treatment with peptide
Description: No PI statined smooth muscle cell nuclei were observed.
as §1

[5] = tested on: two human glioblastoma cell lines and a rat glioma cell line; experiment: Fluorescein peptide uptake, fluorescence microscopy, three glioma lines; assay type: cell-based; conditions: 1 μM peptide, 10^6 cells, all three cell types
Description: Synthetic peptides labeled with an N-terminal fluorescein were synthesized to test the ability of a shuttle domain to enter brain tumor and endothelial cells. The amino acid sequences for the shuttle domain was derived from HIV Tat amino acid 47 to 56 ([…] SEQ ID NO:23)(Robert-Guroff et al., J. Virol. 64:3391-3398, 1990) to which AGGG was added to the N-terminus, and the antennapedia homeodomain from drosophila (ANT) ([…] SEQ ID NO:24) (Astriab-Fisher et al., Pharm. Res., 19:744-754, 2002). A synthetic peptide (PTD-5) reported to have similar properties as Tat and ANT was also tested (Mai J. C. et al, Cancer Res. 2001; 61: 7709-7712.). Uptake was tested in two human glioblastoma cell lines and a rat glioma cell line, the latter being used for the rat brain tumor model. A 1 μM concentration of each peptide was added to 10^6 cells in a 6 well plate. […] The Tat and ANT peptides were doubled in length by the addition of […] (SEQ ID NO: 25), amino acids 42 to 55 from a human cyclin-dependent kinase inhibitor 2A (melanoma, p16, inhibits CDK4) (CDKI), transcript variant 4, mRNA (accession no. NM_058195). This domain binds MDM2 and inhibit ubiquination of P53, a tumor suppressor protein. […] Only the combination of Tat-CDKI was toxic to the cells, 65% killing for T98G and 61% killing for RG2 cells. […] Similar results were obtained with A172 cells. […]

**Q.** For C[C@H](N)C(=O)NCC(=O)NCC(=O)NCC(=O)N[C@@H](Cc1ccc(O)cc1)C(=O)NCC(=O)N[C@@H](CCCNC(=N)N)C(=O)N[C@@H](CCCCN)C(=O)N[C@@H](CCCCN)C(=O)N[C@@H](CCCNC(=N)N)C(=O)N[C@@H](CCCNC(=N)N)C(=O)N[C@@H](CCC(N)=O)C(=O)N[C@@H](CCCNC(=N)N)C(=O)N[C@@H](CCCNC(=N)N)C(=O)N[C@@H](CCCNC(=N)N)C(=O)O [Tat], which uptake rate (RG2 cells) is on record?
**A.** The uptake rate was “more rapid uptake than TatP14ARF”.

**Q.** What about the “labeling of smooth muscle cells” value [1] of the same molecule?
**A.** The value was “able to label the smooth muscle cells”.

**Q.** What about the cells killed [2] of the same molecule?
**A.** Its cells killed is “No impact on cell viability”.

**Q.** And the “endothelium-dependent dilation to histamine and bradykinin” value (rat cerebral arteries [3])?
**A.** Its value is “responsive to all stimuli”.

**Q.** And the “smooth muscle response to 60 and 16 mM KCl” value (rat cerebral arteries [3])?
**A.** Its value is “responsive to all stimuli”.

**Q.** What about the “propidium iodide staining of blood vessels” value (rat cerebral arteries [4]) of the same molecule?
**A.** Its value is “no PI stained nuclei”.

**Q.** And the “fluorescence labeling of cells (uptake)” value [5]?
**A.** Its value is “preferentially labeled the cell nuclei”.

— patent US7339042B2, “Gene delivery to tumors” (University of Florida Research Foundation, Inc., priority 2003, dated 2008)
